Literature values in patent US20220023238A1, “Process of Manufacturing a Stable, Ready to Use Infusion Bag for an Oxidation Sensitive Formulation” (InnoPharma, Inc., priority 2016, published 2022).

Tests used:
[1] = six adult volunteers, intravenous vs oral
[2] = intravenous, therapeutic dosing up to 4,000 mg daily

mean intravenous Cmax compared to oral route [1]: two
Structure (SMILES): CC(=O)Nc1ccc(O)cc1 [acetaminophen, N-(4-hydroxy-phenyl)acetamide]
hepatotoxicity [2]: rarely associated with hepatotoxicity
